Data published in the supplement of paper PMC10307832.

Columns and labels:
Assay in all cases: relative viability (nuclei count vs DMSO), 5 days (fraction); higher = more cells survive
[1] = compound: CCN1CCC(CC1)N2C=C(N=N2)CNC3=CC4=C(C(=CN=C4C(=C3)Cl)C#N)NC5=CC(=C(C=C5)F)Cl [KIN001-266] + CC(=O)c1c(C)c2cnc(Nc3ccc(N4CCNCC4)cn3)nc2n(C2CCCC2)c1=O [Palbociclib] (partner 0.5 µM)
Method in brief: (§1)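 Relative viability was taken as the ratio of nuclei in treated wells to nuclei in vehicle wells. Lung cancer cell lines in 1536-well plates received compounds by pin tool one day after seeding, either one drug alone or a fixed anchor-drug dose plus five library-drug doses (not always all listed) in √10 steps. Nuclei were counted on 4× images after 5 days of treatment, and values are medians of duplicate plates.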

[2] = compound: CCN1CCC(CC1)N2C=C(N=N2)CNC3=CC4=C(C(=CN=C4C(=C3)Cl)C#N)NC5=CC(=C(C=C5)F)Cl [KIN001-266] + C[C@@H](Oc1cc(-c2cnn(C3CCNCC3)c2)cnc1N)c1c(Cl)ccc(F)c1Cl [Crizotinib] (partner 1 µM)
Method in brief: as §1

[3] = compound: CCN1CCC(CC1)N2C=C(N=N2)CNC3=CC4=C(C(=CN=C4C(=C3)Cl)C#N)NC5=CC(=C(C=C5)F)Cl [KIN001-266] + NC(=O)Nc1cc(-c2cccc(F)c2)sc1C(=O)N[C@H]1CCCNC1 [AZD7762] (partner 0.2 µM)
Method in brief: as §1

[4] = compound: CCN1CCC(CC1)N2C=C(N=N2)CNC3=CC4=C(C(=CN=C4C(=C3)Cl)C#N)NC5=CC(=C(C=C5)F)Cl [KIN001-266] + O=C(CCCCCCC(=O)Nc1ccccc1)NO [Vorinostat] (partner 1 µM)
Method in brief: as §1

Cell Line | relative viability ([1]; first compound 0.08 µM) | relative viability ([1]; first compound 0.253 µM) | relative viability ([1]; first compound 0.8 µM) | relative viability ([1]; first compound 2.53 µM) | relative viability ([1]; first compound 8 µM) | relative viability ([2]; first compound 0.08 µM) | relative viability ([2]; first compound 0.253 µM) | relative viability ([2]; first compound 0.8 µM) | relative viability ([2]; first compound 2.53 µM) | relative viability ([2]; first compound 8 µM) | relative viability ([3]; first compound 0.08 µM) | relative viability ([3]; first compound 0.253 µM) | relative viability ([3]; first compound 0.8 µM) | relative viability ([3]; first compound 2.53 µM) | relative viability ([3]; first compound 8 µM) | relative viability ([4]; first compound 0.08 µM) | relative viability ([4]; first compound 0.253 µM) | relative viability ([4]; first compound 0.8 µM) | relative viability ([4]; first compound 2.53 µM) | relative viability ([4]; first compound 8 µM)
NCI-H650 | 0.375 | 0.361 | 0.357 | 0.363 | 0.413 | 0.703 | 0.752 | 0.741 | 0.797 | 0.71 | 1.09 | 1.17 | 1 | 1.08 | 1.23 | 0.321 | 0.558 | 0.505 | 0.455 | 0.598
NCI-H727 | 0.683 | 0.617 | 0.642 | 0.671 | 0.729 | 0.79 | 0.812 | 0.753 | 0.825 | 0.405 | 0.514 | 0.554 | 0.518 | 0.494 | 0.649 | 1.13 | 1.29 | 1.31 | 1.08 | 1.14
NCI-H838 | 0.228 | 0.207 | 0.212 | 0.164 | 0.22 | 0.873 | 0.849 | 0.965 | 0.844 | 0.689 | 0.945 | 0.83 | 0.886 | 0.914 | 0.924 | 0.714 | 0.775 | 0.697 | 0.626 | 0.515
NCI-H1355 | 0.41 | 0.381 | 0.438 | 0.415 | 0.387 | 1.12 | 1.04 | 1.09 | 0.966 | 0.939 | 0.771 | 0.734 | 0.73 | 0.556 | 0.521 | 0.615 | 0.65 | 0.636 | 0.631 | 0.62
NCI-H1437 | 0.34 | 0.33 | 0.296 | 0.325 | 0.278 | 0.896 | 0.973 | 0.924 | 0.891 | 0.779 | 1.12 | 1.16 | 1.12 | 1.1 | 0.963 | 0.931 | 0.841 | 0.797 | 0.841 | 0.572
NCI-H1651 | 0.528 | 0.518 | 0.525 | 0.533 | 0.531 | 0.935 | 0.872 | 0.876 | 0.853 | 0.823 | 0.46 | 0.44 | 0.376 | 0.328 | 0.49 | 0.568 | 0.564 | 0.533 | 0.681 | 0.577
NCI-H1666 | 0.61 | 0.668 | 0.601 | 0.664 | 0.655 | 0.963 | 1.21 | 1.01 | 0.964 | 0.797 | 0.921 | 0.799 | 0.744 | 0.826 | 0.767 | 1.04 | 1.06 | 1.01 | 1.03 | 1
NCI-H1734 | 0.342 | 0.539 | 0.345 | 0.321 | 0.294 | 0.647 | 0.601 | 0.589 | 0.681 | 0.51 | 0.566 | 0.635 | 0.438 | 0.631 | 0.461 | 0.849 | 0.85 | 0.743 | 0.796 | 0.599
NCI-H1755 | 0.43 | 0.447 | 0.432 | 0.443 | 0.413 | 0.942 | 0.798 | 0.836 | 0.826 | 0.718 | 0.408 | 0.492 | 0.425 | 0.452 | 0.43 | 0.726 | 0.75 | 0.7 | 0.691 | 0.763
NCI-H1915 | 0.546 | 0.599 | 0.514 | 0.543 | 0.389 | 0.895 | 0.87 | 0.902 | 0.918 | 0.851 | 0.703 | 0.729 | 0.687 | 0.729 | 0.727 | 0.499 | 0.484 | 0.534 | 0.509 | 0.544
NCI-H1944 | 0.338 | 0.355 | 0.319 | 0.361 | 0.351 | 1.13 | 1.13 | 1.1 | 1.08 | 1.24 | 0.579 | 0.544 | 0.401 | 0.46 | 0.394 | 0.58 | 0.508 | 0.469 | 0.575 | 0.625
NCI-H1975 | 0.709 | 0.553 | 0.551 | 0.609 | 0.505 | 1.04 | 0.928 | 0.964 | 0.966 | 0.842 | 0.733 | 0.689 | 0.776 | 0.756 | 0.678 | 0.693 | 0.688 | 0.716 | 0.707 | 0.604
NCI-H1993 | 0.68 | 0.653 | 0.66 | 0.688 | 0.58 | 0.954 | 0.858 | 0.982 | 0.815 | 0.776 | 1.06 | 0.815 | 0.673 | 0.827 | 0.624 | 0.959 | 0.604 | 0.685 | 0.713 | 0.471
NCI-H2085 | 0.478 | 0.494 | 0.504 | 0.461 | 0.38 | 0.867 | 1.05 | 0.875 | 0.794 | 0.615 | 0.971 | 1.03 | 0.847 | 0.962 | 0.977 | 0.785 | 0.779 | 0.808 | 0.772 | 0.667
NCI-H2087 | 0.241 | 0.308 | 0.267 | 0.26 | 0.242 | 0.699 | 0.81 | 0.604 | 0.786 | 0.532 | 1.28 | 1.37 | 1.51 | 1.25 | 0.771 | 0.455 | 0.776 | 0.965 | 0.898 | 0.594
NCI-H2126 | 0.324 | 0.366 | 0.387 | 0.358 | 0.365 | 1.04 | 1.02 | 0.965 | 1.05 | 1.08 | 1.03 | 1.02 | 1 | 0.814 | 1.05 | 0.809 | 0.783 | 0.751 | 0.732 | 0.694
NCI-H2170 | 0.375 | 0.433 | 0.365 | 0.407 | 0.373 | 1.17 | 1.19 | 1.22 | 1.11 | 1.18 | 0.924 | 0.958 | 0.924 | 0.854 | 0.774 | 0.853 | 0.759 | 0.828 | 0.752 | 0.83
NCI-H2347 | 0.445 | 0.468 | 0.401 | 0.442 | 0.404 | 0.675 | 0.802 | 0.673 | 0.682 | 0.625 | 0.77 | 0.799 | 0.771 | 0.736 | 0.537 | 0.678 | 0.647 | 0.62 | 0.594 | 0.418
NCI-H2405 | 0.525 | 0.567 | 0.551 | 0.467 | 0.441 | 0.854 | 0.89 | 0.811 | 0.852 | 0.565 | 0.761 | 0.752 | 0.865 | 0.739 | 0.488 | 1.08 | 1.03 | 1.02 | 1.04 | 0.809
NCI-H3122 | 0.155 | 0.204 | 0.176 | 0.233 | 0.209 | 0.329 | 0.239 | 0.267 | 0.256 | 0.221 | 0.937 | 1.15 | 1.08 | 0.947 | 0.956 | 0.966 | 1.13 | 0.992 | 1.06 | 1.02
PC-3 [JPC-3] | 0.539 | 0.544 | 0.542 | 0.537 | 0.549 | 0.986 | 0.911 | 0.872 | 0.952 | 0.896 | 0.792 | 0.915 | 0.799 | 0.775 | 0.801 | 0.856 | 0.887 | 0.801 | 0.987 | 0.847
PC-14 | 0.55 | 0.518 | 0.594 | 0.509 | 0.0895 | 0.92 | 0.972 | 0.817 | 0.852 | 0.571 | 0.365 | 0.405 | 0.315 | 0.355 | 0.3 | 0.627 | 0.803 | 0.158 | 0.577 | 0.0881
RERF-LC-KJ | 1.14 | 1.07 | 1.13 | 1.11 | 0.83 | 0.722 | 0.899 | 0.803 | 0.777 | 0.813 | 0.984 | 0.876 | 0.809 | 0.768 | 0.947 | 0.765 | 0.779 | 0.65 | 0.682 | 0.555
